Tested on: DENV-4 strain Dak HD 34 460
Test: Antiviral activity against DENV-4 in Vero-B cells (viral RNA load by RT-qPCR)
Assay type: cell-based, Dengue virus
Conditions: Dengue virus, DENV4, Vero B
With `COc1cc(NC(C(=O)c2c[nH]c3ccccc23)c2ccccc2)cc(OC)n1` (stereo not drawn) [CPD-319] the EC50 was 2270 nM.
For `COc1cccc(NC(C(=O)c2c[nH]c3ccccc23)c2cncc(F)c2)c1` (stereo not drawn) [CPD-321], the EC50 was 2740 nM.
For `COc1cccc(NC(C(=O)c2c[nH]c3c(C)cccc23)c2cc3ccccn3n2)c1` (stereo not drawn) [CPD-329], the EC50 was 2920 nM.
With `COc1cc(NC(C(=O)c2c[nH]c3c(C)cccc23)c2ccccc2)cc(OCCO)c1` (stereo not drawn) [CPD-331] the EC50 was 3280 nM.
`COc1cccc(NC(C(=O)c2c[nH]c3c(C)cccc23)c2ccc(OC)nc2)c1` (stereo not drawn) [CPD-332] gave an EC50 of 2840 nM.
Work on `COc1cc(CO)cc(NC(C(=O)c2c[nH]c3ccccc23)c2ccc(F)nc2)c1` (stereo not drawn) [CPD-333] yielded an EC50 of 5920 nM.
Compound `COc1cc(NC(C(=O)c2c[nH]c3ccccc23)c2ccc(OC)nc2)cc(OC)c1` (stereo not drawn) [CPD-335] has an EC50 of 2380 nM.
Compound `COc1cc(NC(C(=O)c2c[nH]c3c(C)cccc23)c2ccccc2)cc(OC)c1` (stereo not drawn) [CPD-337] has an EC50 of 950 nM.
With `COc1cc(NC(C(=O)c2c[nH]c3c(CCO)cccc23)c2ccccc2)cc(OC)c1` (stereo not drawn) [CPD-339] the EC50 was 2930 nM.
For `COc1cccc(NC(C(=O)c2c[nH]c3ccccc23)c2ccccc2C)c1` (stereo not drawn) [CPD-348], the EC50 was 3750 nM.
`COc1cc(NC(C(=O)c2c[nH]c3ccc(CO)cc23)c2ccccc2)cc(OC)c1` (stereo not drawn) [CPD-351] gave an EC50 of 9580 nM.
`COc1cc(NC(C(=O)c2c[nH]c3cccc(CO)c23)c2ccccc2)cc(OC)c1` (stereo not drawn) [CPD-352] showed an EC50 of 8600 nM.
`COc1cc(NC(C(=O)c2c[nH]c3ccc(CCCO)cc23)c2ccccc2)cc(OC)c1` (stereo not drawn) [CPD-353] showed an EC50 of 7180 nM.

Tested on: DENV-3 strain H87 prototype
Test: Antiviral activity against DENV-3 in Vero-B cells (viral RNA load by RT-qPCR)
Assay type: cell-based, Dengue virus
Conditions: Dengue virus, DENV3, Vero B
For `COc1cc(NC(C(=O)c2c[nH]c3ccccc23)c2ccccc2)cc(OC)n1` (stereo not drawn) [CPD-319], the EC50 was 1700 nM.
For `COc1cccc(NC(C(=O)c2c[nH]c3ccccc23)c2cncc(F)c2)c1` (stereo not drawn) [CPD-321], the EC50 was 320 nM.
In the case of `COc1cccc(NC(C(=O)c2c[nH]c3c(C)cccc23)c2cc3ccccn3n2)c1` (stereo not drawn) [CPD-329], the EC50 is reported as 320 nM.
Compound `COc1cc(NC(C(=O)c2c[nH]c3c(C)cccc23)c2ccccc2)cc(OCCO)c1` (stereo not drawn) [CPD-331] has an EC50 of 390 nM.
In the case of `COc1cccc(NC(C(=O)c2c[nH]c3c(C)cccc23)c2ccc(OC)nc2)c1` (stereo not drawn) [CPD-332], the EC50 is reported as 1350 nM.
In the case of `COc1cc(CO)cc(NC(C(=O)c2c[nH]c3ccccc23)c2ccc(F)nc2)c1` (stereo not drawn) [CPD-333], the EC50 is reported as 490 nM.
`COc1cc(NC(C(=O)c2c[nH]c3ccccc23)c2ccc(OC)nc2)cc(OC)c1` (stereo not drawn) [CPD-335] gave an EC50 of 420 nM.
`COc1cc(NC(C(=O)c2c[nH]c3c(C)cccc23)c2ccccc2)cc(OC)c1` (stereo not drawn) [CPD-337] gave an EC50 of 230 nM.
In the case of `COc1cc(NC(C(=O)c2c[nH]c3c(CCO)cccc23)c2ccccc2)cc(OC)c1` (stereo not drawn) [CPD-339], the EC50 is reported as 820 nM.
In the case of `COc1cc(NC(C(=O)c2c[nH]c3ccc(CO)cc23)c2ccccc2)cc(OC)c1` (stereo not drawn) [CPD-351], the EC50 is reported as 2020 nM.
Compound `COc1cc(NC(C(=O)c2c[nH]c3cccc(CO)c23)c2ccccc2)cc(OC)c1` (stereo not drawn) [CPD-352] has an EC50 of 3030 nM.
`COc1cc(NC(C(=O)c2c[nH]c3ccc(CCCO)cc23)c2ccccc2)cc(OC)c1` (stereo not drawn) [CPD-353] gave an EC50 of 170 nM.

Tested on: DENV-1 Djibouti strain D1/H/IMTSSA/98/606
Test: Antiviral activity against DENV-1 in Vero-B cells (viral RNA load by RT-qPCR)
Assay type: cell-based, Dengue virus
Conditions: Dengue virus, DENV1, Vero B
`COc1cc(NC(C(=O)c2c[nH]c3ccccc23)c2ccccc2)cc(OC)n1` (stereo not drawn) [CPD-319] gave an EC50 of 2840 nM.
`COc1cccc(NC(C(=O)c2c[nH]c3ccccc23)c2cncc(F)c2)c1` (stereo not drawn) [CPD-321] showed an EC50 of 400 nM.
`COc1cccc(NC(C(=O)c2c[nH]c3c(C)cccc23)c2cc3ccccn3n2)c1` (stereo not drawn) [CPD-329] showed an EC50 of 270 nM.
For `COc1cc(NC(C(=O)c2c[nH]c3c(C)cccc23)c2ccccc2)cc(OCCO)c1` (stereo not drawn) [CPD-331], the EC50 was 390 nM.
Work on `COc1cccc(NC(C(=O)c2c[nH]c3c(C)cccc23)c2ccc(OC)nc2)c1` (stereo not drawn) [CPD-332] yielded an EC50 of 720 nM.
`COc1cc(CO)cc(NC(C(=O)c2c[nH]c3ccccc23)c2ccc(F)nc2)c1` (stereo not drawn) [CPD-333] showed an EC50 of 390 nM.
With `COc1cc(NC(C(=O)c2c[nH]c3ccccc23)c2ccc(OC)nc2)cc(OC)c1` (stereo not drawn) [CPD-335] the EC50 was 320 nM.
In the case of `COc1cc(NC(C(=O)c2c[nH]c3c(C)cccc23)c2ccccc2)cc(OC)c1` (stereo not drawn) [CPD-337], the EC50 is reported as 90 nM.
Compound `COc1cc(NC(C(=O)c2c[nH]c3c(CCO)cccc23)c2ccccc2)cc(OC)c1` (stereo not drawn) [CPD-339] has an EC50 of 810 nM.

Tested on: uninfected quiescent Vero-B cells
Test: Cytotoxic assay in uninfected quiescent Vero-B cells (MTS/PMS)
Conditions: 4 days (Table 3)
With `COc1cccc(NC(C(=O)c2c[nH]c3ccccc23)c2ccccc2C)c1` (stereo not drawn) [CPD-348] the CC50 was 14 µM.
`COc1cc(NC(C(=O)c2c[nH]c3ccc(CO)cc23)c2ccccc2)cc(OC)c1` (stereo not drawn) [CPD-351] showed a CC50 of 65 µM.
In the case of `COc1cc(NC(C(=O)c2c[nH]c3cccc(CO)c23)c2ccccc2)cc(OC)c1` (stereo not drawn) [CPD-352], the CC50 is reported as 71 µM.
`COc1cc(NC(C(=O)c2c[nH]c3ccc(CCCO)cc23)c2ccccc2)cc(OC)c1` (stereo not drawn) [CPD-353] gave a CC50 of 56 µM.

Tested on: not listed separately
Test: in vitro
Conditions: African green monkey, uninfected quiescent Vero-B cells
Work on `COc1cc(NC(C(=O)c2c[nH]c3ccccc23)c2ccccc2)cc(OC)n1` (stereo not drawn) [CPD-319] yielded a CC50 at 4 days of 20 µM.
Compound `COc1cccc(NC(C(=O)c2c[nH]c3ccccc23)c2cncc(F)c2)c1` (stereo not drawn) [CPD-321] has a CC50 at 4 days of 33 µM.
`COc1cccc(NC(C(=O)c2c[nH]c3c(C)cccc23)c2cc3ccccn3n2)c1` (stereo not drawn) [CPD-329] showed a CC50 at 4 days of 41 µM.
With `COc1cc(NC(C(=O)c2c[nH]c3c(C)cccc23)c2ccccc2)cc(OCCO)c1` (stereo not drawn) [CPD-331] the CC50 at 4 days was 14 µM.
For `COc1cccc(NC(C(=O)c2c[nH]c3c(C)cccc23)c2ccc(OC)nc2)c1` (stereo not drawn) [CPD-332], the CC50 at 4 days was 20 µM.
With `COc1cc(CO)cc(NC(C(=O)c2c[nH]c3ccccc23)c2ccc(F)nc2)c1` (stereo not drawn) [CPD-333] the CC50 at 4 days was 90 µM.
`COc1cc(NC(C(=O)c2c[nH]c3ccccc23)c2ccc(OC)nc2)cc(OC)c1` (stereo not drawn) [CPD-335] gave a CC50 at 4 days of 18 µM.
`COc1cc(NC(C(=O)c2c[nH]c3c(C)cccc23)c2ccccc2)cc(OC)c1` (stereo not drawn) [CPD-337] showed a CC50 at 4 days of 15 µM.
For `COc1cc(NC(C(=O)c2c[nH]c3c(CCO)cccc23)c2ccccc2)cc(OC)c1` (stereo not drawn) [CPD-339], the CC50 at 4 days was 19 µM.

Tested on: DENV-2 NGC
Test: Antiviral activity against DENV-2 NGC in Vero-B cells (viral RNA load by RT-qPCR)
Assay type: cell-based, Dengue virus
Conditions: Dengue virus, DENV2, Vero B, DENV-2 in Vero-B cells; inhibition of viral RNA replication by 50% (Table 3)
With `COc1cc(NC(C(=O)c2c[nH]c3ccccc23)c2ccccc2)cc(OC)n1` (stereo not drawn) [CPD-319] the EC50 was 120 nM.
Compound `COc1cccc(NC(C(=O)c2c[nH]c3ccccc23)c2cncc(F)c2)c1` (stereo not drawn) [CPD-321] has an EC50 of 110 nM.
In the case of `COc1cccc(NC(C(=O)c2c[nH]c3c(C)cccc23)c2cc3ccccn3n2)c1` (stereo not drawn) [CPD-329], the EC50 is reported as 10 nM.
`COc1cc(NC(C(=O)c2c[nH]c3c(C)cccc23)c2ccccc2)cc(OCCO)c1` (stereo not drawn) [CPD-331] showed an EC50 of 20 nM.
For `COc1cccc(NC(C(=O)c2c[nH]c3c(C)cccc23)c2ccc(OC)nc2)c1` (stereo not drawn) [CPD-332], the EC50 was 40 nM.
Compound `COc1cc(CO)cc(NC(C(=O)c2c[nH]c3ccccc23)c2ccc(F)nc2)c1` (stereo not drawn) [CPD-333] has an EC50 of 40 nM.
In the case of `COc1cc(NC(C(=O)c2c[nH]c3ccccc23)c2ccc(OC)nc2)cc(OC)c1` (stereo not drawn) [CPD-335], the EC50 is reported as 20 nM.
With `COc1cc(NC(C(=O)c2c[nH]c3c(C)cccc23)c2ccccc2)cc(OC)c1` (stereo not drawn) [CPD-337] the EC50 was 5 nM.
In the case of `COc1cc(NC(C(=O)c2c[nH]c3c(CCO)cccc23)c2ccccc2)cc(OC)c1` (stereo not drawn) [CPD-339], the EC50 is reported as 90 nM.
`COc1cccc(NC(C(=O)c2c[nH]c3ccccc23)c2ccccc2C)c1` (stereo not drawn) [CPD-348] gave an EC50 of 100 nM.
In the case of `COc1cc(NC(C(=O)c2c[nH]c3ccc(CO)cc23)c2ccccc2)cc(OC)c1` (stereo not drawn) [CPD-351], the EC50 is reported as 110 nM.
With `COc1cc(NC(C(=O)c2c[nH]c3cccc(CO)c23)c2ccccc2)cc(OC)c1` (stereo not drawn) [CPD-352] the EC50 was 290 nM.
Compound `COc1cc(NC(C(=O)c2c[nH]c3ccc(CCCO)cc23)c2ccccc2)cc(OC)c1` (stereo not drawn) [CPD-353] has an EC50 of 100 nM.

— US12012411B2, “Viral replication inhibitors” (Katholieke Universiteit Leuven, priority 2011, dated 2024)
